Experimental data as given in patent US4130647A, “Methods for treating congestive heart failure and ischemic heart disease” (priority 1977, dated 1978).
Values joined by “and” are separate entries in the source; they are usually repeats but may differ in a detail not shown here. Identical values can stand only once.

Tested on: patients with congestive heart failure
Assay: Hemodynamic effects of oral trimazosin in congestive heart failure (Example 2)
Assay type: in vivo, human
Description: Studies were performed in male patients with clinical and radiographic evidence of congestive heart failure due to ischemic or primary cardiomyopathy. To be eligible for the study patients had to have supine systolic blood pressure of at least 100 mm. Hg. and a supine resting cardiac index below 2.5 L/min./m^2, as measured by the non-invasive carbon dioxide rebreathing method [Franciosa, et al., J. Lab. Clin. Med., 88, 662 (1976) and Franciosa, et al., Circulation, 55, 449 (1977)]. Six patients met these criteria and were selected for the study.
After obtaining written informed consent, patients were entered into a 2 day dose finding period during which single daily doses of trimazosin were given and blood pressure and heart rate monitored for 4 hours. On day one 100 mg. was given; if no response or side effects occurred, 200 mg. was given the next day. For purposes of this study a response was defined as a fall in supine blood pressure to a level equal to 0.2 × control systolic pressure +76 mm. Hg. This formula was arbitrarily chosen so that patients with control systolic blood pressure as low as 100 mm. Hg. would be included, and their pressures could be reduced to 96 mm. Hg. Upon completion to the dose finding period, no trimazosin was given for the next 24 hours to allow for washout of previous doses. After this, hemodynamic studies were performed employing the predetermined doses; if 200 mg. of trimazosin was ineffective, 300 mg. was given for hemodynamic studies.
On the day of hemodynamic studies, diuretics and other vasodilators were withheld but maintenance digitalis doses were given in order to obtain a reasonably steady hemodynamic state. Procainamide was given to the one patient who had been taking it chronically. Right heart catheterization was performed using a triple lumen Swan-Ganz catheter which was inserted percutaneously via an antecubital or femoral vein and positioned with its tip in the pulmonary artery and the proximal lumen in the right atrium [Swan, et al,. N. Engl. J. Med., 283, 447 (1970)]. A brachial artery was cannulated with a short teflon catheter inserted over an 18-guage thin walled needle. Catheters were connected to P23Db Statham pressure transducers and pressures recorded on a Hewlett-Packard multichannel physiological recorder. Transducers were positioned at the mid-chest level with the patient supine, and all measurements were made in this position. Heart rate was monitored from the electrocardiogram. Cardiac outputs were measured by the dye-dilution method using indocyanine green injected into the pulmonary artery and sampled from the brachial artery through a Gilford densitometer connected to the recorder. Forearm venous capacitance was measured by occlusion plethysmography employing a Whitney mercury-in-rubber resistance guage [Cohen, et al., Clin. Sci., 30, 267 (1966) and Mason, et al., Circulation, 32, 756 (1965)]. For this determination, the forearm was elevated and suspended in a cradle. The venous occluding cuff was inflated to 30 mm. Hg. and forearm girth allowed to equilibrate over 2-3 minutes. The change in forearm girth at this point was taken as a measure of venous capacitance.
Hemodynamic measurements were made before and at hourly intervals for 4 hours after administration of trimazosin. Pulmonary wedge pressure was taken as occluded pulmonary arterial pressure or pulmonary arterial diastolic pressure. These were not interchanged and only one was used in any given patient. Systemic vascular resistance was calculated as the difference between means systemic arterial and right atrial pressures divided by cardiac output. Pulmonary vascular resistance was calculated as mean pulmonary arterial pressure divided by cardiac output. […]

[1] = 2 hours after trimazosin, individual patients

In the case of `COc1cc2c(N)nc(N3CCN(C(=O)OCC(C)(C)O)CC3)nc2c(OC)c1OC` [trimazosin, 2-hydroxy-2-methylpropyl 4-(4-amino-6,7,8-trimethoxy-2-quinazolinyl)-1-piperazinecarboxylate], the “cardiac index, patients not responding” value (2 hours after trimazosin) is reported as “failed to increase in 2 patients”, the “pulmonary arterial pressures, patients responding” value (2 hours after trimazosin) is reported as “fell in every patient” and the “Cardiac Index” value [1] is reported as 1.86 L/min./m^2 and 1.14 L/min./m^2 and 2.36 L/min./m^2 and 1.74 L/min./m^2 and 2.96 L/min./m^2 and 2.67 L/min./m^2. For the same compound, the “Mean Pulmonary Arterial Pressure” value [1] was 15 mm.Hg. and 39 mm.Hg. and 29 mm.Hg. and 49 mm.Hg. and 31 mm.Hg. and 40 mm.Hg, the “Mean Systemic Arterial Pressure” value [1] was 82 mm.Hg. and 78 mm.Hg. and 88 mm.Hg. and 87 mm.Hg. and 73 mm.Hg and the “Pulmonary Vascular Resistance” value [1] was 4 units and 18 units and 6 units and 15 units and 8 units. The “Pulmonary Wedge Pressure” value [1] was 3 mm.Hg. and 28 mm.Hg. and 23 mm.Hg. and 37 mm.Hg. and 18 mm.Hg. and 34 mm.Hg, the “Systemic Vascular Resistance” value [1] was 23 units and 31 units and 16 units and 24 units and 15 units and 12 units and the “Heart Rate, mean” value (2 hours after trimazosin, mean dose 183.3 mg., control 88.0, ns) was 85.0 beats/min. The right atrial pressure (2 hours after trimazosin, before 11.3 ± 2.1) was 8.7 ± 1.6 mm. Hg, the “Cardiac Index, mean” value (2 hours after trimazosin, control 1.76, ns) was 2.12 L/min./m^2 and the “Pulmonary Vascular Resistance, mean” value (2 hours after trimazosin, control 15.8, P <0.05) was 9.5 units. The “Systemic Vascular Resistance, mean” value (2 hours after trimazosin, control 27.3, ns) was 20.2 units, the “Pulmonary Wedge Pressure, mean” value (2 hours after trimazosin, control 30.7, P <0.01) was 23.8 mm.Hg and the “Mean Pulmonary Arterial Pressure, mean” value (2 hours after trimazosin, control 40.7, P <0.01) was 33.8 mm.Hg. For the same compound, the “Mean Systemic Arterial Pressure, mean” value (2 hours after trimazosin, control 91.2, P <0.05) was 82.5 mm.Hg, the “pulmonary wedge pressure persistence” value (4 hours after trimazosin) was “still significantly below control at 4 hours” and the “Heart Rate” value (T = 2 hours after trimazosin (100-300 mg.), individual patients) was 96 beats/min. and 84 beats/min. and 75 beats/min. and 81 beats/min. and 78 beats/min. The “left ventricular function curve shift upward and leftward” value (after trimazosin) was “Only one patient failed to shift their left ventricular function curve upward and leftward”, the stroke volume (after trimazosin) was “stroke volume was increased” and the “time of maximal increase of cardiac index” value (after trimazosin) was 1 h. For the same compound, the “time of maximal reduction of pulmonary wedge pressure” value (after trimazosin) was 2 h, the “time of peak decline of mean systemic arterial pressure” value (after trimazosin) was 1.5 h and the “time of peak effects of the various hemodynamic parameters” value (after trimazosin) was 1 to 3 h. The “diastolic pressure at peak effect” value (after trimazosin, control 74.8 ± 4.2, ns) was 67.0 ± 2.9 mm. Hg, the “systolic arterial pressure at peak effect” value (after trimazosin, control 128.3, p<0.05) was 116.8 ± 9.2 mm. Hg and the heart rate change (following trimazosin) was “the decrease achieved statistical significance”. The “right atrial pressure and forearm veins, patients responding” value (following trimazosin) was “Right atrial pressure fell and forearm veins dilated in every patient”, the right atrial pressure (one patient with normal pulmonary wedge pressure, fell from 5) was 3 mm. Hg and the tachycardia (patients with congestive heart failure) was “did not produce tachycardia”. For the same compound, the cardiac output (patients with normal control cardiac output or normal control pulmonary wedge pressure) was “appeared to reduce cardiac output”.
